According to US12275731B2, “Azaindole inhibitors of wild-type and mutant forms of LRRK2” (DANA-FARBER CANCER INSTITUTE, INC., priority 2018, dated 2025):

Assays:
Assay in all cases: KinomeScan profiling
Type in all cases: binding
[1] = biological target: T1, RSK2(Kin.Dom.1-N-terminal) (Homo sapiens, UniProt P51812); details: read-out: % control
T1 construct: RSK2(Kin.Dom.1-N-terminal)
Outline: (§1)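 Compounds were screened at 1 μM in DMSO across a 468-kinase KinomeScan panel. Binding was expressed as % control, scaled between a positive control (0%) and DMSO (100%) using luminescence signal. A value under 35% counted as active.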

[2] = biological target: T2, FLT3(D835H) (Homo sapiens, UniProt P36888, D835H); details: read-out: % control
T2 sequence (P36888 27-993 D835H): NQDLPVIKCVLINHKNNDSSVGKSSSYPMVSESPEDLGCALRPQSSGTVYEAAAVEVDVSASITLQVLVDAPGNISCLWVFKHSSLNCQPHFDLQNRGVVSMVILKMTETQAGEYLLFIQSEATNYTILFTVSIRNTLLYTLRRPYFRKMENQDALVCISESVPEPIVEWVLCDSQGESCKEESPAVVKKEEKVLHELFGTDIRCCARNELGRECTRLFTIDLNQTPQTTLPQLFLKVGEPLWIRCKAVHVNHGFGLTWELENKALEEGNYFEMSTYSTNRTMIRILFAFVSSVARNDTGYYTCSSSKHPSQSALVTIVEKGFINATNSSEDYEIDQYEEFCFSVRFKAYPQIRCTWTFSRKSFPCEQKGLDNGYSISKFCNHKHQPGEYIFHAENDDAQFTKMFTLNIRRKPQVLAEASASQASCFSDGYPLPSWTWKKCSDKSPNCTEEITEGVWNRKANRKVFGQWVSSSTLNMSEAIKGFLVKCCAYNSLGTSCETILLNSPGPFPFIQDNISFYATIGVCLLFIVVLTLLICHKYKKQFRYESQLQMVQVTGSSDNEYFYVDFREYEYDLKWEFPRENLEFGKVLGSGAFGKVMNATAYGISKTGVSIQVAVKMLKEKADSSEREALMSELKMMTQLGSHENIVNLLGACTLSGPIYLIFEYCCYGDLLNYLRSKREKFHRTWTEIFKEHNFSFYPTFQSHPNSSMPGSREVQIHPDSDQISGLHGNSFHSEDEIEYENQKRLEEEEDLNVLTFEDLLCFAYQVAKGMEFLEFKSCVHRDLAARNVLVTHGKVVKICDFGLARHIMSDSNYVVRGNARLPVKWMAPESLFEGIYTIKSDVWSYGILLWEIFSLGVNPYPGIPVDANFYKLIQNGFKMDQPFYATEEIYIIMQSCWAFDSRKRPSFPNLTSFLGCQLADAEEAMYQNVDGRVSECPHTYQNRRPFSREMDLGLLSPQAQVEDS
Outline: as §1

[3] = biological target: T3, LZK (Homo sapiens, UniProt O43283); details: read-out: % control
T3 sequence (O43283 1-966): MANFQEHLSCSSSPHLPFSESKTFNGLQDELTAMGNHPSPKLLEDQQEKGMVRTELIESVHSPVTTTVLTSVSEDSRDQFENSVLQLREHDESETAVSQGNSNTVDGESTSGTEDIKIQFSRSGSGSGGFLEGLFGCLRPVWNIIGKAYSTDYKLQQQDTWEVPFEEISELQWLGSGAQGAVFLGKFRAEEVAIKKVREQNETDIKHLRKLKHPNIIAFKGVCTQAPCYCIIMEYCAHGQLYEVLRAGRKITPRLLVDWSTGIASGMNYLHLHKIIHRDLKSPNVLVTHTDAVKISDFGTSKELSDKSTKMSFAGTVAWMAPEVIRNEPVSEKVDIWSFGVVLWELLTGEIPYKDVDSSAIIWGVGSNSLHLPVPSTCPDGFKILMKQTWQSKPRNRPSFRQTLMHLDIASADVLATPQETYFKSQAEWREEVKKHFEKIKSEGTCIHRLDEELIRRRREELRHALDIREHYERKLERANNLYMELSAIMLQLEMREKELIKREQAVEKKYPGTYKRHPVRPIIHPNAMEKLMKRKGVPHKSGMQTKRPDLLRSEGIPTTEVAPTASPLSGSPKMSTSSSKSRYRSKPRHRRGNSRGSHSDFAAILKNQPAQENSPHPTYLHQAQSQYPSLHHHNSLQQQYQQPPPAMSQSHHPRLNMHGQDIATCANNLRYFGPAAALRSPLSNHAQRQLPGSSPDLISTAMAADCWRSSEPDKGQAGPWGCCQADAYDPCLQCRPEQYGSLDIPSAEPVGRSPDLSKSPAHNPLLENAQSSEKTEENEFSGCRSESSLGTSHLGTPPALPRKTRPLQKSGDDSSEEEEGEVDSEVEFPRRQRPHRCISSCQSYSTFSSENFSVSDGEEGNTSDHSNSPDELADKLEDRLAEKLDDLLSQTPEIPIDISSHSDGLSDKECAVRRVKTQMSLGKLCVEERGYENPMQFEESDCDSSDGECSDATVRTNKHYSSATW
Outline: as §1

[4] = biological target: MEK1 (Homo sapiens, UniProt Q02750); details: MEK1, 1 μM; read-out: % control
Outline: as §1

[5] = biological target: T4, SYK (Homo sapiens, UniProt P43405); details: read-out: % control
T4 construct: purchased KinomeScan® (panel service)
Outline: as §1

MEK1, sequence (Q02750 whole entry): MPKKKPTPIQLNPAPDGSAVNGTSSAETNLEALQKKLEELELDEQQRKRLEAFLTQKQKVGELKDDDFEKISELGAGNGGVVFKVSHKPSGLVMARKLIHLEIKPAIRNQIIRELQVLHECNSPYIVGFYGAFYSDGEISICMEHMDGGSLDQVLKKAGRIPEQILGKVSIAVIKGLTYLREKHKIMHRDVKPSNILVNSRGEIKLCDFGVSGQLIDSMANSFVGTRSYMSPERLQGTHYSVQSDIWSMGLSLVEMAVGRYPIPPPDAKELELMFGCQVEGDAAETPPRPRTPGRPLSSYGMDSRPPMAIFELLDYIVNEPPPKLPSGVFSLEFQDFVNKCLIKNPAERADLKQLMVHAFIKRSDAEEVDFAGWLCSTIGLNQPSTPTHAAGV
T1 sequence (P51812 68-327 limits assumed): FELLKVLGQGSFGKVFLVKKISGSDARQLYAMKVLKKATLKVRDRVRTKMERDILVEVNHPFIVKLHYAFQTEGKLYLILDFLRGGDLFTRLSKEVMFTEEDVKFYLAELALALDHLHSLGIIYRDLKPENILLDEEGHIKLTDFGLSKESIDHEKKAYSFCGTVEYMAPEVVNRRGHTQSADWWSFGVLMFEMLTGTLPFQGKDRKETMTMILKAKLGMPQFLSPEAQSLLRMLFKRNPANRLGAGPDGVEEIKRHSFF

`CNc1c(-c2cnn([C@H]3CCN(C(C)=O)C[C@@H]3F)c2)cnc2[nH]cc(Cl)c12` [Compound 77, 1-((3S,4S)-4-(4-(3-chloro-4-(methylamino)-1H-pyrrolo[2,3-b]pyridin-5-yl)-1H-pyrazol-1-yl)-3-fluoropiperidin-1-yl)ethan-1-one] was tested, and the remaining binding at 1 µM [1] was 54%, the remaining binding at 1 µM [2] was 7.9% and the remaining binding at 1 µM [3] was 61%. It also gave a remaining binding at 1 µM [4] of 29% and a remaining binding at 1 µM [5] of 100%.

`O=C(c1ccc(-c2cnc3[nH]cc(Cl)c3c2NC2CCCC2)cc1)N1CCC(N2CCOCC2)CC1` [Compound 101, (4-(3-chloro-4-(cyclopentylamino)-1H-pyrrolo[2,3-b]pyridin-5-yl)phenyl)(4-morpholinopiperidin-1-yl)methanone] showed a remaining binding at 1 µM [1] of 65%, a remaining binding at 1 µM [2] of 41% and a remaining binding at 1 µM [3] of 76%. For the same compound, the remaining binding at 1 µM [4] was 94% and the remaining binding at 1 µM [5] was 100%.

`CNc1c(-c2ccc(C(=O)N3CCC(N4CCOCC4)CC3)cc2)cnc2[nH]cc(Cl)c12` [Compound 96, (4-(3-chloro-4-(methylamino)-1H-pyrrolo[2,3-b]pyridin-5-yl)phenyl)(4-morpholinopiperidin-1-yl)methanone] gave a remaining binding at 1 µM [1] of 54%, a remaining binding at 1 µM [2] of 9.9% and a remaining binding at 1 µM [3] of 89%. For the same compound, the remaining binding at 1 µM [4] was 12% and the remaining binding at 1 µM [5] was 100%.
